Test results from US12479843B2, “Spiro ring-containing quinazoline compounds” (WIGEN BIOMEDICINE TECHNOLOGY (SHANGHAI) CO., LTD., priority 2019, dated 2025).

Experiments:
[1] = test system: pERK level in H358 cells; assay: pERK and ERK protein content assay in H358 cells (ELISA); assay type: cell-based; conditions: Homo sapiens, NCI-H358, compound 1 μM, 24 h, pERK/ERK ratio compared with DMSO group, read-out: Inhibition rate (%) of pERK level
Outline: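 H358 cells grown one day, then treated 24 h with compound at 1 μM. pERK and ERK in lysates measured by ELISA; pERK/ERK ratio expressed as percent inhibition versus DMSO.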

[2] = test system: H358 cells; assay: Antiproliferative activity against H358 cells (Cell Titer Glow, ultra-low attachment plate); assay type: cell-based; conditions: Homo sapiens, NCI-H358, 72 h, 96-well ultra-low attachment plate, three days after addition of compound, Cell Titer Glow
Procedure: 2500 H358 cells were seeded in a 96-well ultra-low attachment plate (corning, 7007). After one day of growth, a serially diluted compound (a maximum concentration of 5 μM, 5-fold dilution, a total of five doses) was added. Three days after the addition of the compound, Cell Titer Glow (Promega, G9681) was added to evaluate pellet growth, and the IC50 value was calculated.

Row | SMILES | inhibition at 1 µM [1] [%] | IC50 [2] [µM]
1 | C=CC(=O)N1CC2(CCN(c3nc(N4CC(N5CCC(C)(C)CC5)C4)nc4c(OCC(F)(F)F)c(-c5c(C)ccc6[nH]ncc56)c(C5CC5)cc34)CC2)C1 [Compound 269] | > 90 | < 0.3
2 | C=CC(=O)N1CC2(CCN(c3nc(N4CC5(CC(N(C)C)C5)C4)nc4c(OCC(F)(F)F)c(-c5c(C)ccc6[nH]ncc56)c(C5CC5)cc34)CC2)C1 [Compound 286] | > 90 | < 0.3
3 | C=CC(=O)N1CC2(CCN(c3nc(N4CC[C@H](N5CCOCC5)C4)nc4c(OCC(F)(F)F)c(-c5c(C)ccc6[nH]ncc56)c(C5CC5)cc34)CC2)C1 [Compound 209] | > 90 | < 0.3
4 | C=CC(=O)N1CC2(CCN(c3nc(N4CC(N5CCCC5)C4)nc4c(OCC(F)(F)F)c(-c5c(C)c(C)cc6[nH]ncc56)c(C5CC5)cc34)CC2)C1 [Compound 218] | > 90 | < 0.3
5 | C=CC(=O)N1CC2(CCN(c3nc(N4CC5(C4)C[S+]([O-])C5)nc4c(OCC(F)(F)F)c(-c5c(C)ccc6[nH]ncc56)c(C5CC5)cc34)CC2)C1 [Compound 305] | 50 to 90 | 0.3 to 1
6 | C=CC(=O)N1CC2(CCN(c3nc(N4CC(N5CCC5)C4)nc4c(OCC(F)(F)F)c(-c5c(C)ccc6[nH]ncc56)c(C=C)cc34)CC2)C1 [Compound 336] | > 90 | < 0.3
7 | C=CC(=O)N1CC2(CCN(c3nc(N4CC5(CN(CCOC)C5)C4)nc4c(OCC(F)(F)F)c(-c5c(C)ccc6[nH]ncc56)c(C5CC5)cc34)CC2)C1 [Compound 71] | > 90 | < 0.3
8 | C=CC(=O)N1CC2(CCN(c3nc(N4CC[C@@H](N5CC(F)(F)C5)C4)nc4c(OCC(F)(F)F)c(-c5c(C)ccc6[nH]ncc56)c(C5CC5)cc34)CC2)C1 [Compound 206] | 50 to 90 | 0.3 to 1
9 | C=CC(=O)N1CC2(CCN(c3nc(N4CC(N5CCC(C)CC5)C4)nc4c(OCC(F)(F)F)c(-c5c(C)ccc6[nH]ncc56)c(C5CC5)cc34)CC2)C1 [Compound 268] | > 90 | < 0.3
10 | C=CC(=O)N1CC2(CCN(c3nc(N4CCN(C5CCOCC5)CC4)nc4c(OCC(F)(F)F)c(-c5c(C)ccc6[nH]ncc56)c(C5CC5)cc34)CC2)C1 [Compound 154] | > 90 | < 0.3
11 | C=CC(=O)N1CC2(CCN(c3nc(N4CCC5(CCN(CCOC)CC5)C4)nc4c(OCC(F)(F)F)c(-c5c(C)ccc6[nH]ncc56)c(C5CC5)cc34)CC2)C1 [Compound 101] | > 90 | < 0.3
12 | C=CC(=O)N1CC2(CCN(c3nc(N4CC5(CC(OC)C5)C4)nc4c(OCC(F)(F)F)c(-c5c(C)ccc6[nH]ncc56)c(C5CC5)cc34)CC2)C1 [Compound 283] | 50 to 90 | 0.3 to 1
13 | C=CC(=O)N1CC2(CCN(c3nc(N4CC[C@H](N5CC(C)C5)C4)nc4c(OCC(F)(F)F)c(-c5c(C)ccc6[nH]ncc56)c(C5CC5)cc34)CC2)C1 [Compound 296] | > 90 | < 0.3
14 | C=C(F)C(=O)N1CC2(CCN(c3nc(OC4CCC5(CC4)CN(C)C5)nc4c(OCC(F)(F)F)c(-c5c(C)ccc6[nH]ncc56)c(C5CC5)cc34)CC2)C1 [Compound 136] | 50 to 90 | 0.3 to 1
15 | C=CC(=O)N1CC2(CCN(c3nc(OC4CCN(CCOC)CC4)nc4c(OCC(F)(F)F)c(-c5c(C)ccc6[nH]ncc56)c(C(C)C)cc34)CC2)C1 [Compound 15] | > 90 | < 0.3
16 | C=C(F)C(=O)N1CC2(CCN(c3nc(N4CC5(CCN(C6COC6)CC5)C4)nc4c(OCC(F)(F)F)c(-c5c(C)ccc6[nH]ncc56)c(C5CC5)cc34)CC2)C1 [Compound 90] | > 90 | < 0.3
17 | C=C(F)C(=O)N1CC2(CCN(c3nc(N4CC5(CCN(CCCOC)CC5)C4)nc4c(OCC(F)(F)F)c(-c5c(C)ccc6[nH]ncc56)c(C5CC5)cc34)CC2)C1 [Compound 96] | > 90 | < 0.3
18 | C=CC(=O)N1CC2(CCN(c3nc(N4CC5(C4)[C@@H](N(C)C)CCN5C)nc4c(OCC(F)(F)F)c(-c5c(C)ccc6[nH]ncc56)c(C5CC5)cc34)CC2)C1 [Compound 277] | > 90 | < 0.3
19 | C=C(F)C(=O)N1CC2(CCN(c3nc(N4CC(N(C)C)C4)nc4c(OCC(F)(F)F)c(-c5c(C)ccc6[nH]ncc56)c(C5CC5)cc34)CC2)C1 [Compound 139] | > 90 | < 0.3
20 | C=CC(=O)N1CC2(CCN(c3nc(N4CC5(CCN(CCC#N)CC5)C4)nc4c(OCC(F)(F)F)c(-c5c(C)ccc6[nH]ncc56)c(C5CC5)cc34)CC2)C1 [Compound 87] | > 90 | < 0.3
21 | C=CC(=O)N1CC2(CCN(c3nc(OC4C(C)CS(=O)(=O)CC4C)nc4c(OCC(F)(F)F)c(-c5c(C)ccc6[nH]ncc56)c(C5CC5)cc34)CC2)C1 (stereo not drawn) [Compound 317] | > 90 | < 0.3

Row | SMILES | inhibition at 1 µM [1] [%] | IC50 [2] [µM]
22 | C=CC(=O)N1CC2(CCN(c3nc(OC4CN(CCOC)C4)nc4c(OCC(F)(F)F)c(-c5c(C)ccc6[nH]ncc56)c(C5CC5)cc34)CC2)C1 [Compound 113] | > 90 | < 0.3
23 | C=CC(=O)N1CC2(CCN(c3nc(N4CC5(C4)[C@H](OC)CCN5C)nc4c(OCC(F)(F)F)c(-c5c(C)ccc6[nH]ncc56)c(C5CC5)cc34)CC2)C1 [Compound 276] | > 90 | < 0.3
24 | C=CC(=O)N1CC2(CCN(c3nc(OC4CCN(CCOC)CC4)nc4c(OCC(F)(F)F)c(-c5c(C)ccc6[nH]ncc56)ccc34)CC2)C1 [Compound 10] | 50 to 90 | 0.3 to 1
25 | C=C(F)C(=O)N1CC2(CCN(c3nc(OC4CCN(CCCOC)CC4)nc4c(OCC(F)(F)F)c(-c5c(C)ccc6[nH]ncc56)c(C5CC5)cc34)CC2)C1 [Compound 63] | > 90 | < 0.3
26 | C=C(C(=O)N1CC2(CCN(c3nc(OC4CCN(CCOC)CC4)nc4c(OCC(F)(F)F)c(-c5c(C)ccc6[nH]ncc56)c(C5CC5)cc34)CC2)C1)C(F)(F)F [Compound 19] | 50 to 90 | 0.3 to 1
27 | C=CC(=O)N1CC2(CCN(c3nc(N4CCC(N5CCC5)CC4)nc4c(OCC(F)(F)F)c(-c5c(C)ccc6[nH]ncc56)c(C5CC5)cc34)CC2)C1 [Compound 215] | > 90 | < 0.3
28 | C=CC(=O)N1CC2(CCN(c3nc(OC4C5CC4CN(CCOC)C5)nc4c(OCC(F)(F)F)c(-c5c(C)ccc6[nH]ncc56)c(C5CC5)cc34)CC2)C1 (stereo not drawn) [Compound 119] | 50 to 90 | < 0.3
29 | C=CC(=O)N1CC2(CCN(c3nc(N4CC(N5CCC(F)(F)C5)C4)nc4c(OCC(F)(F)F)c(-c5c(C)ccc6[nH]ncc56)c(C5CC5)cc34)CC2)C1 [Compound 176] | 50 to 90 | 0.3 to 1
30 | C=C(F)C(=O)N1CC2(CCN(c3nc(N4CC(N5CC(OC)C5)C4)nc4c(OCC(F)(F)F)c(-c5c(C)ccc6[nH]ncc56)c(C5CC5)cc34)CC2)C1 [Compound 145] | > 90 | < 0.3
31 | C=CC(=O)N1CC2(CCN(c3nc(N4CC[C@@H](N5CC(C)C5)C4)nc4c(OCC(F)(F)F)c(-c5c(C)ccc6[nH]ncc56)c(C5CC5)cc34)CC2)C1 [Compound 297] | > 90 | < 0.3
32 | C=C(F)C(=O)N1CC2(CCN(c3nc(OC4CCN(CCOC)CC4)nc4c(OCC(F)(F)F)c(-c5c(F)ccc6cn[nH]c56)c(C5CC5)cc34)CC2)C1 [Compound 34] | > 90 | < 0.3
33 | C=CC(=O)N1CC2(CCN(c3nc(OC4CC5(C4)CN(CCOC)C5)nc4c(OCC(F)(F)F)c(-c5c(C)ccc6[nH]ncc56)c(C5CC5)cc34)CC2)C1 [Compound 125] | > 90 | < 0.3
34 | C=CC(=O)N1CC2(CCN(c3nc(N4CC(N5CC(OCC)C5)C4)nc4c(OCC(F)(F)F)c(-c5c(C)ccc6[nH]ncc56)c(C5CC5)cc34)CC2)C1 [Compound 170] | 50 to 90 | 0.3 to 1
35 | C=CC(=O)N1CC2(CCN(c3nc(N4CC(N5CCC5)C4)nc4c(OCC(F)(F)F)c(-c5c(C)ccc6[nH]ncc56)c(C(=C)C)cc34)CC2)C1 [Compound 320] | > 90 | < 0.3
36 | C=C(C#N)C(=O)N1CC2(CCN(c3nc(OC4CCN(CCOC)CC4)nc4c(OCC(F)(F)F)c(-c5c(C)ccc6[nH]ncc56)c(C5CC5)cc34)CC2)C1 [Compound 18] | 50 to 90 | 0.3 to 1
37 | C=CC(=O)N1CC2(CCN(c3nc(N4CC(N5CCCC5)C4)nc4c(OCC(F)(F)F)c(-c5c(C)ccc6[nH]ncc56)c(C=C)cc34)CC2)C1 [Compound 337] | > 90 | < 0.3
38 | C=CC(=O)N1CC2(CCN(c3nc(N4CC(N5CC[C@@H](C(C)(C)O)C5)C4)nc4c(OCC(F)(F)F)c(-c5c(C)ccc6[nH]ncc56)c(C5CC5)cc34)CC2)C1 [Compound 254] | > 90 | 0.3 to 1
39 | C=C(F)C(=O)N1CC2(CCN(c3nc(OC4C5CC4CN(CCOC)C5)nc4c(OCC(F)(F)F)c(-c5c(C)ccc6[nH]ncc56)c(C5CC5)cc34)CC2)C1 (stereo not drawn) [Compound 120] | 50 to 90 | 0.3 to 1
40 | C=CC(=O)N1CC2(CCN(c3nc(N4CC[C@@H](N(C)CC)C4)nc4c(OCC(F)(F)F)c(-c5c(C)ccc6[nH]ncc56)c(C5CC5)cc34)CC2)C1 [Compound 188] | > 90 | < 0.3
41 | C=CC(=O)N1CC2(CCN(c3nc(N4CC(N5CCOCC5)C4)nc4c(OCC(F)(F)F)c(-c5c(C)ccc6[nH]ncc56)c(C5CC5)cc34)CC2)C1 [Compound 146] | > 90 | < 0.3
42 | C=CC(=O)N1CC2(CCN(c3nc(N4CC(N5CCC5)C4)nc4c(OCC(F)(F)F)c(-c5c(C)c(C)cc6[nH]ncc56)c(C=C)cc34)CC2)C1 [Compound 221] | > 90 | < 0.3
